Measurements reported in EP2308493A1, “AMELIORATING OR THERAPEUTIC AGENT FOR DYSLIPIDEMIA” (Mochida Pharmaceutical Co., Ltd., priority 2008, dated 2010).

Columns and labels:
[1] = system: high sucrose diet-fed hamster; assay: Effectiveness in high sucrose diet-fed hamster (plasma lipid change rate); type: in vivo, Syrian hamsters; details: for Change rate Non-HDL Cho / Change rate TG / Change rate Total Cho: 14th day, versus control group
Procedure: Pharmacological action of EPA-E and/or tocopherol nicotinate on plasma lipids was confirmed by using hamsters that had been fed high sucrose diet. 6 week old male Syrian hamsters (Japan SLC, Inc.) were allowed to freely take fish meal-less F-1 diet (F-1, Funabashi Farm) under 12 hour light-dark cycles at 23°C for 2 weeks, and then, high sucrose diet (D11511, Research Diet Inc.) for 2 weeks. 6 groups (each comprising 6 animals), namely, control group, EPA-E 300 group, EPA-E 1000 group, tocopherol nicotinate 1000 group (hereinafter referred to as TN1000 group), low dose combination group, and high dose combination group were set. During the feeding of the high sucrose diet, the EPA-E 300 group was administered with 300 mg/kg of EPA-E (Mochida Pharmaceutical Co.); the EPA-E 1000 group was administered with 1000 mg/kg of EPA-E; the TN1000 group was administered with 1000 mg/kg of tocopherol nicotinate (Wako Pure Chemical Industries, Ltd.); the low dose combination group was administered with 300 mg/kg of EPA-E and 1000 mg/kg of tocopherol nicotinate; and the high dose combination group was administered with 1000 mg/kg of EPA-E and 1000 mg/kg of tocopherol nicotinate after suspending in 5% aqueous solution of gum arabic. The control group was orally administered with 5% aqueous solution of gum arabic once a day. Blood was collected one day before the start of the administration and on the 14th day of the administration, and plasma was separated by centrifugation. Plasma TG, total Cho, and HDL Cho concentration were respectively measured using a biochemical analyzer (A0400, Olympus Corporation) and commercially available assay reagent (Wako Pure Chemical Industries, Ltd.). The nan-HDL Cho concentration (total Cho-HDL Cho) was also calculated. No statistically significant difference was found in the plasma lipid concentrations of various groups on the day before the start of the administration. The plasma TG, total Cho, and non-HDL Cho concentration of each group at 14th day of the drug administration was compared with the corresponding values of the control group, and change rate was calculated by the following equation: Change rate (%) = [{(lipid concentration of each group)-(lipid concentration of control group)}x100]/(lipid concentration of the control group) [formula] For the combination group, sum of the change rate of the EPA-E sole administration group and the change rate of the tocopherol nicotinate sole administration group is shown in Table 1 as the theoretical change rate of the combination group. When the change rate of the actual measurement was negative and the value was lower than the theoretical value, synergistic effect by the combined use in the lipid decrease was deemed to have been realized.

Cho diet rabbit = assay: Effectiveness in Cho diet rabbit (plasma lipids, auricle skin temperature, platelet collagen aggregation); type: in vivo, Japan white male rabbits; details: HCD diet 12 weeks; EPA-E 1000 mg/kg or tocopherol nicotinate 300 mg/kg orally once a day; compared to control group
Text: Pharmacological action of EPA-E and/or tocopherol nicotinate on plasma lipids, auricle skin temperature, and platelet aggregation is confirmed by using rabbits that have been fed with Cho diet (hereinafter referred to as "HCD diet") known to develop a dyslipidemia. Japan white male rabbits (Funabashi Farm) having a body weight of 2.7 to 3.3 kg are allowed to freely take 100 g/day of normal diet (F-1, Funabashi Farm) or HCD diet (RC-4 supplemented with 1% Cho, Oriental Yeast Co.,Ltd.) for 12 weeks under 12 hour light-dark cycles at 23°C. 5 groups (each comprising 10 animals), namely, normal group (normal diet feeding); control group (HCD diet feeding); EPA-E group (HCD diet feeding + EPA-E administration); tocopherol nicotinate group (HCD diet feeding + tocopherol nicotinate administration); and combination group (HCD diet feeding + EPA-E administration + tocopherol nicotinate administration) are set. During the feeding, the EPA-E group is administered with 1000 mg/kg of EPA-E; the tocopherol nicotinate group is administered with 300 mg/kg of tocopherol nicotinate; and the combination group is administered with 1000 mg/kg of EPA-E and […] of tocopherol nicotinate after suspending in 5% aqueous solution of gum arabic. The administration is conducted orally once a day. The normal group and the control group are orally administered with 5% aqueous solution of gum arabic once a day. At the start of the administration and after 12 weeks of feeding, auricle skin temperature is measured by thermography and blood is collected for plasma biochemical tests. Platelet collagen aggregation is also checked after 12 weeks of feeding by measuring absorbance.

hypertriglyceridemia rat = assay: Effectiveness in hypertriglyceridemia rat; type: in vivo, Zucker Diabetic Fatty rat; details: 4 weeks; EPA-E 300 mg/kg or tocopherol nicotinate 100 mg/kg orally once a day as emulsion; compared to control group
Procedure: 6 week old male Zucker Diabetic Fatty rat (Charles River Japan) are allowed to freely take diabetes-inducing diet (Purina 5008 (crude protein content, 23.5%; crude lipid content, 6.5%)) under 12 hour light-dark cycles at 23°C. 4 groups (each comprising 10 animals), namely, control group; EPA-E group (EPA-E administration); tocopherol nicotinate group (tocopherol nicotinate administration); and combination group (EPA-E administration + tocopherol nicotinate administration) are set. During the feeding, the EPA-E group is administered with 300 mg/kg of EPA-E; the tocopherol nicotinate group is administered with 100 mg/kg of tocopherol nicotinate; and the combination group is administered with 300 mg/kg of EPA-E and 100 mg/kg of tocopherol nicotinate. The administration is conducted orally once a day. The drugs are administered by preparing an emulsion preparation according to Preparation Example 8. The control group is orally administered with base of the emulsion preparation of Preparation Example 8 once a day. At the start of the administration and after 4 weeks of feeding, auricle skin temperature is measured by thermography and blood is collected for plasma biochemical test.

[2] = system: lauric acid-induced peripheral arterial occlusive hypertriglyceridemia rat; assay: Effectiveness in lauric acid-induced peripheral arterial occlusive hypertriglyceridemia rat (lesion score); type: in vivo, Wister rats; details: 2 weeks after the surgery; EPA-E 300 mg/kg or tocopherol nicotinate 100 mg/kg orally once a day; compared to control group
Procedure: 4 week old male Wister rats (Japan SLC, Inc.) are allowed to freely take high sucrose diet (AIN-76A, PURINA MILLS) for 4 weeks under 12 hour light-dark cycles at 23°C. 5 groups (each comprising 10 animals), namely, sham surgery group; control group, EPA-E group (EPA-E administration); tocopherol nicotinate group (tocopherol nicotinate administration); and combination group (EPA-E administration + tocopherol nicotinate administration) are set. During the feeding, the EPA-E group is administered with 300 mg/kg of EPA-E; the tocopherol nicotinate group is administered with 100 mg/kg of tocopherol nicotinate; and the combination group is administered with 300 mg/kg of EPA-E and 100 mg/kg of tocopherol nicotinate after suspending in 5% aqueous solution of gum arabic. The administration is conducted orally once a day. […] Progress of the lesion of the limbs on the peripheral side of the injection site is scored for wet gangrene and dry gangrene, and the lesion is visually inspected with naked eyes every day until 2 weeks after the surgery. Progress of the lesion is scored by the following criteria: • Score 0: no change, score 1: the lesion is limited to nail, score 2: the lesion is limited to finger, score 3: the lesion is expanded to footpad, and score 4: the lesion is expanded to lower limb.

Row | Compound | Change rate Non-HDL Cho ([1]; 300 mg/kg orally) [%] | Change rate TG ([1]; 300 mg/kg orally) [%] | Change rate Total Cho ([1]; 300 mg/kg orally) [%] | Change rate Non-HDL Cho ([1]; 1000 mg/kg orally) [%] | Change rate TG ([1]; 1000 mg/kg orally) [%] | Change rate Total Cho ([1]; 1000 mg/kg orally) [%] | decrease of the auricle skin temperature (Cho diet rabbit) | enhancement of the platelet collagen aggregation (Cho diet rabbit) | plasma TG concentration (Cho diet rabbit) | plasma total Cho concentration (Cho diet rabbit) | plasma TG concentration (hypertriglyceridemia rat) | plasma free fatty acid concentration (hypertriglyceridemia rat) | score of progress of the lesion (wet and dry gangrene, 0-4) [2] | lipid reducing action (plasma TG, total Cho, non-HDL Cho) ([1]; high sucrose diet, 14 days oral administration)
1 | CC/C=C\C/C=C\C/C=C\C/C=C\C/C=C\CCCC(=O)OCC [EPA-E, Ethyl icosapentaenoate] | 14.8 | 2.7 | 11.1 | 11.1 | 19.6 | 2.7 |  |  |  |  |  |  |  | 
2 | Cc1c(C)c2c(c(C)c1OC(=O)c1cccnc1)CCC(C)(CCCC(C)CCCC(C)CCCC(C)C)O2 (centres unmarked) [tocopherol nicotinate] |  |  |  | -11.6 | -23.3 | -3.7 | also suppressed | also suppressed | suppressed increase | suppressed increase | suppressed increase | suppressed increase | improved scores | the action of reducing the TG and non-HDL Cho was found
